The target in this assay is Human immunodeficiency virus type 1 protease (Human immunodeficiency virus 1, UniProt Q72874). Nature of the assay: Inhibitory concentration against HIV-1 Protease at pH 5.6 and at 37 degrees C.
By IC50 is commonly meant the point on the concentration scale where inhibition reaches its midpoint. A low value points to greater potency in that assay. In the case of `CCC(C)[C@H](NC(=O)[C@@H]1CCCN1P(=O)(O)C(Cc1ccccc1)NC(=O)[C@H](CC(N)=O)NC(=O)OC(C)(C)C)C(=O)NCC(C)C` (stereo not given in full), inhibition was half-maximal at 118 µM (IC50). `CCC(C)[C@H](NC(=O)[C@@H]1CCCN1P(=O)(OC)C(Cc1ccccc1)NC(=O)[C@H](CC(N)=O)NC(=O)OC(C)(C)C)C(=O)NCC(C)C` (single isomer, unassigned) had an IC50 of 43.2 µM. The compound `CCC(C)[C@H](NC(=O)[C@@H]1CCCN1P(=O)(OC)[C@@H](Cc1ccccc1)NC(=O)[C@H](CC(N)=O)NC(=O)OC(C)(C)C)C(=O)NCC(C)C` (single isomer, unassigned) gave an IC50 of 576 µM. For `CCC(C)[C@H](NC(=O)[C@@H]1CCCN1P(=O)(OC)[C@H](Cc1ccccc1)NC(=O)[C@H](CC(N)=O)NC(=O)OC(C)(C)C)C(=O)NCC(C)C` (single isomer, unassigned; 2a), half-maximal inhibition (IC50) was put at 141 µM.

As to `CCC(C)[C@H](NC(=O)[C@@H]1CCCN1P(=O)(OC)[C@H](Cc1ccccc1)NC(=O)[C@H](CC(N)=O)NC(=O)OC(C)(C)C)C(=O)NCC(C)C` (single isomer, unassigned; 2d), the half-maximal inhibitory concentration (IC50) is 134 µM.

These data come from ChEMBL document CHEMBL1126452, “Synthesis of stereochemically defined phosphonamidate-containing peptides: Inhibitors for the HIV-1 proteinase” (Bioorg Med Chem Lett, 1992).
